Peptide text beside a SMILES is read from it. * marks the point of attachment. 5FAM = O=C1OC2(c3ccc(O)cc3Oc3cc(O)ccc32)c2ccc(C(=O)*)cc21
Tests used:
[1] = test system: HepG2 WT cells; assay: Colocalization of EGFP-ATP7B-WT with TGN, lysosome (LAMP1) and LC3B markers; format: cell-based, human; conditions: 200 µM BCS, 24 h
Method: For the detection of the effect of copper on autophagosome-lysosome fusion, 50,000 cells of each HepG2 WT and HepG2 ATP7B^−/− were grown on laminin-coated coverslips for 24 h, transduced with BacMam-GFP-RFP-LC3B overnight according to the manufacturer’s recommendations. The cells were then treated with CuSO4 at a concentration range from 100 µM to 800 µM for 24 h, fixed with 4% paraformaldehyde for 15 min and finally stained with 250 ng/mL DAPI (Thermo Fisher scientific, Molecular Probes, D1306) for 5 min. The coverslips were fixed on a glass slide using Mowiol 4–88 (Sigma Aldrich, 81381). The fluorescence cell imaging was acquired using a confocal Zeiss LSM 780 microscope with a 63 × 1.40 Oil DIC M27. […] Red and yellow puncta count per cell was done using the particle analysis in image J. For protein ATP7B trafficking analysis, 50,000 cells of HepG2 WT and HepG2 ATP7B^−/− were cultured in a 500 µL cell culture medium on a laminin-coated coverslip for 24 h, then transfected with EGFP-ATP7B. After 6 h post transfection, cells were transduced with BacMam-RFP-Golgi or the BacMam-RFP-Lysosome overnight, then treated with various concentrations of CuSO4 or 200 µM of bathocuproine disulfonate (BCS) for 24 h or EBSS for 2 h, respectively. To detect LC3B or endogenous ATP7B, the fixed cells were incubated with anti-LC3B or anti-ATP7B antibodies at 4 °C overnight followed by secondary antibody incubation, Alexa Fluor 568 goat anti-rabbit, at temperature for 1 h in the dark. Pearson’s correlation coefficient was analyzed per cell using the colocalization threshold of ImageJ Fiji.

[2] = target: T1, LC3B (Homo sapiens, UniProt Q9GZQ8); assay: Fluorescence polarization binding of CF-labelled LIR peptides to purified LC3B; conditions: CF-labelled peptide 2.5 µM (25 µL) + LC3B 0.2–330 µM (25 µL), HEPES buffer 50 mM pH 7.2, 50 mM NaCl, 2 mM DTE, one site-specific binding fit, three independent replications, read-out: Kd (dissociation constant) for LC3B
T1 construct: His6 (N, cleaved yes); MBP (N, cleaved yes); made in house; host or cells: E. coli BL21-codonplus (DE3)-RIL
Method: Binding experiments were done in a black 384-microwell plate. […] Each CF-labelled peptide in a volume of 25 µL at a concentration of 2.5 µM was combined with 25 µL of LC3B at a concentration range from 0.2–330 µM. The fluorescent polarization was measured with the excitation and emission wavelengths of […], respectively. The obtained polarization data were corrected by subtraction of the peptide alone (blank). The dissociation constant (Kd) was quantified using a nonlinear curve fitting the site-specific binding on GraphPad Prism 5.0 for Windows (GraphPad Software, La Jolla, CA, USA). Experiments were performed in three independent replications.

| SMILES | fold elevation of ATP7B fraction in the TGN vs basal medium condition [1] | ATP7B fraction in the TGN ([1]; from mean Pearson's correlation coefficient, 30 cells) [%] | Kd [2] [µM] |
| --- | --- | --- | --- |
| Cc1cc(-c2ccc(S(=O)(=O)O)cc2)c2ccc3c(-c4ccc(S(=O)(=O)O)cc4)cc(C)nc3c2n1 [BCS, bathocuproine disulfonate] | about 12.6 fold | 32.8 | – |
| CSCC[C@H](NC(=O)c1ccc2c(c1)C(=O)OC21c2ccc(O)cc2Oc2cc(O)ccc21)C(=O)N[C@@H](CCCCN)C(=O)N[C@@H](CCCCN)C(=O)N[C@@H](CO)C(=O)N[C@@H](Cc1ccccc1)C(=O)N[C@@H](C)C(=O)N[C@@H](Cc1ccccc1)C(=O)N[C@@H](CC(=O)O)C(=O)N[C@@H](CC(N)=O)C(=O)N[C@H](C(=O)NCC(=O)N[C@@H](Cc1ccc(O)cc1)C(=O)N[C@@H](CCC(=O)O)C(=O)NCC(=O)NCC(=O)N[C@@H](CC(C)C)C(=O)N[C@@H](CC(=O)O)C(N)=O)C(C)C [LIR1] (5FAM-MKKSFAFDNVGYEGGLD-NH2) | – | – | > 250 |
| CC(C)[C@H](NC(=O)[C@H](Cc1ccc(O)cc1)NC(=O)[C@H](CO)NC(=O)[C@@H](NC(=O)[C@H](CCC(N)=O)NC(=O)[C@H](CC(=O)O)NC(=O)[C@H](Cc1c[nH]c2ccccc12)NC(=O)[C@@H]1CCCN1C(=O)[C@@H](NC(=O)[C@H](C)NC(=O)[C@H](CCCNC(=N)N)NC(=O)[C@@H]1CCCN1C(=O)[C@H](CO)NC(=O)[C@H](CC(=O)O)NC(=O)c1ccc2c(c1)C(=O)OC21c2ccc(O)cc2Oc2cc(O)ccc21)[C@@H](C)O)C(C)C)C(=O)N[C@@H](CO)C(=O)N[C@@H](CCC(N)=O)C(N)=O [LIR2] (5FAM-DSPRATPWDQVSYVSQ-NH2) | – | – | > 250 |
| CC(C)C[C@H](NC(=O)[C@H](C)NC(=O)[C@H](CC(C)C)NC(=O)[C@H](CO)NC(=O)[C@H](C)NC(=O)[C@H](CCCCN)NC(=O)[C@H](CC(=O)O)NC(=O)CNC(=O)[C@H](CC(=O)O)NC(=O)[C@H](CC(=O)O)NC(=O)[C@H](CC(=O)O)NC(=O)[C@H](C)NC(=O)c1ccc2c(c1)C(=O)OC21c2ccc(O)cc2Oc2cc(O)ccc21)C(=O)N[C@@H](CC(N)=O)C(=O)NCC(=O)N[C@@H](CCCNC(=N)N)C(=O)N[C@@H](CC(=O)O)C(N)=O [LIR3^W1452A,L1455A] (5FAM-ADDDGDKASLALNGRD-NH2) | – | – | > 250 |
| CC(C)C[C@H](NC(=O)[C@H](CO)NC(=O)[C@H](C)NC(=O)[C@H](CCCCN)NC(=O)[C@H](CC(=O)O)NC(=O)CNC(=O)[C@H](CC(=O)O)NC(=O)[C@H](CC(=O)O)NC(=O)[C@H](CC(=O)O)NC(=O)[C@H](C)NC(=O)c1ccc2c(c1)C(=O)OC21c2ccc(O)cc2Oc2cc(O)ccc21)C(=O)N[C@@H](CC(C)C)C(=O)N[C@@H](CC(C)C)C(=O)N[C@@H](CC(N)=O)C(=O)NCC(=O)N[C@@H](CCCNC(=N)N)C(=O)N[C@@H](CC(=O)O)C(N)=O [LIR3^W1452A] (5FAM-ADDDGDKASLLLNGRD-NH2) | – | – | > 250 |

— article PMC8625360 (Cells, 2021)
